# Results as given in ChEMBL document CHEMBL3045803, “Preparation and root growth-inhibitory activity of N-substituted 2-(2-chloroacetamido)-3-(furan-2-yl)propanamides” (2005).
# System: Brassica rapa subsp. oleifera
# Experiment: Inhibition of Brassica rapa subsp. oleifera root growth assessed as reduction of root length at 5 x 10^-5 M after 7 days by germination assay relative to control
# Assay type: functional
# Conditions: 168 h
row,Compound,inhibition at 50 µM [%]
1,O=C(CCl)NC(Cc1ccco1)C(=O)Nc1cccc(Cl)c1 (centres undefined),30
2,O=C(CCl)NC(Cc1ccco1)C(=O)Nc1ccc(F)cc1 (centres undefined),37
3,CCc1cccc(NC(=O)C(Cc2ccco2)NC(=O)CCl)c1 (centres undefined),35
4,"O=C(O)COc1ccc(Cl)cc1Cl [2,4-DICHLOROPHENOXYACETIC ACID]",97
5,Cc1csc(NC(=O)C(Cc2ccco2)NC(=O)CCl)n1 (centres undefined),56
6,CCc1ccc(NC(=O)C(Cc2ccco2)NC(=O)CCl)cc1 (centres undefined),41
7,O=C(CCl)NC(Cc1ccco1)C(=O)Nc1nc2ccccc2s1 (centres undefined),58
8,O=C(CCl)NC(Cc1ccco1)C(=O)Nc1nccs1 (centres undefined),57
9,O=C(CCl)NC(Cc1ccco1)C(=O)Nc1ncc(Br)s1 (centres undefined),69
10,O=C(CCl)NC(Cc1ccco1)C(=O)Nc1nc(-c2ccc(Cl)cc2)cs1 (centres undefined),52
11,O=C(CCl)NC(Cc1ccco1)C(=O)Nc1nc2c(Cl)cccc2s1 (centres undefined),42
12,Cc1nc(NC(=O)C(Cc2ccco2)NC(=O)CCl)sc1C (centres undefined),25
13,O=C(CCl)NC(Cc1ccco1)C(=O)Nc1cccc(Br)c1 (centres undefined),42
14,O=C(CCl)NC(Cc1ccco1)C(=O)Nc1ncc([N+](=O)[O-])s1 (centres undefined),37
15,CCc1cccc(CC)c1NC(=O)C(Cc1ccco1)NC(=O)CCl (centres undefined),76
16,O=C(CCl)NC(Cc1ccco1)C(=O)Nc1ccc(Br)cc1 (centres undefined),29
17,Cc1cnc(NC(=O)C(Cc2ccco2)NC(=O)CCl)s1 (centres undefined),20
18,O=C(CCl)NC(Cc1ccco1)C(=O)Nc1ccccc1 (centres undefined),52
19,CCc1ccccc1NC(=O)C(Cc1ccco1)NC(=O)CCl (centres undefined),20
20,O=C(CCl)NC(Cc1ccco1)C(=O)Nc1ccc(Cl)cc1 (centres undefined),19
21,O=C(CCl)NC(Cc1ccco1)C(=O)Nc1cccc(F)c1 (centres undefined),33
22,Cc1cccc(C)c1NC(=O)C(Cc1ccco1)NC(=O)CCl (centres undefined),62
23,CCOc1ccc2nc(NC(=O)C(Cc3ccco3)NC(=O)CCl)sc2c1 (centres undefined),34
24,CCc1cccc(C)c1NC(=O)C(Cc1ccco1)NC(=O)CCl (centres undefined),67
